In the experiment the target is PKMYT1 (Homo sapiens (Human), UniProt Q99640). Briefly: In vitro assay: kinase binding to immobilized ligand, captured kinase measured by qPCR. For orientation: Real-time PCR tracks product formation cycle by cycle.

Structures are written as SMILES.

For 25 compounds, IC50 results are on record in patent US20250388583A1, “COMPOUNDS AND METHOD FOR PKMYT1 INHIBITION” (Engine Biosciences Pte. Ltd., priority 2022, published 2025).

Sequence of PKMYT1 (Q99640 whole entry): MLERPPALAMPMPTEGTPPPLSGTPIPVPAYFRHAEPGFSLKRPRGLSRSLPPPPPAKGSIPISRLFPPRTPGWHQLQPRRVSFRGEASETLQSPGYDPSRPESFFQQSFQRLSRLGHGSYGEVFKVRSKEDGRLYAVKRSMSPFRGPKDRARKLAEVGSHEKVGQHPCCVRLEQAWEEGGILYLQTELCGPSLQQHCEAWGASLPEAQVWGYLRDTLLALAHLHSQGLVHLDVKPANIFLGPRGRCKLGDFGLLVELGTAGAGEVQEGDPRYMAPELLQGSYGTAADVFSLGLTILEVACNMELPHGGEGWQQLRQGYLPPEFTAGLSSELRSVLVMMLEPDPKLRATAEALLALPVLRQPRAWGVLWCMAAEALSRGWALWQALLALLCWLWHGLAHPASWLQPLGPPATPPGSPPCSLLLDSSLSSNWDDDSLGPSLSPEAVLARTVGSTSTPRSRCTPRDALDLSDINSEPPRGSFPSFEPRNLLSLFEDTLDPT
Excerpt: Screening “hits” were identified by measuring the amount of kinase captured in test versus control samples by using a quantitative, precise and ultra-sensitive qPCR method that detect the associated DNA label.

As usually defined, the IC50 is the concentration at which inhibition is half-maximal. Higher therefore signals a need for much substance. Take `Cc1ccc(O)c(C)c1-n1c(N)c(C(N)=O)c2cnc(N3CC[C@@H](O)C3)nc21` [Compound 583, 6-amino-7-(3-hydroxy-2,6-dimethyl-phenyl)-2-[(3R)-3-hydroxypyrrolidin-1-yl]pyrrolo[2,3-d]pyrimidine-5-carboxamide]: the IC50 was less than 50 nM. `Cc1ccc(O)c(C)c1-n1c(N)c(C(N)=O)c2cnc(NCCO)nc21` (single isomer, unassigned) [Compound 585, 6-amino-7-(3-hydroxy-2,6-dimethylphenyl)-2-((2-hydroxyethyl)amino)-7H-pyrrolo[2,3-d]pyrimidine-5-carboxamide]: the IC50 was greater than 1000 nM. Regarding `Cc1ccc(O)c(C)c1-n1c(N)c(C(N)=O)c2cncc(C#N)c21` [Compound 587, 2-amino-7-cyano-1-(3-hydroxy-2,6-dimethylphenyl)-1H-pyrrolo[3,2-c]pyridine-3-carboxamide], the IC50 is less than 50 nM. Under `Cc1cn2c(C(N)=O)c(N)c(-c3c(C)ccc(O)c3C)c2cn1` [Compound 555, 7-amino-8-(3-hydroxy-2,6-dimethyl-phenyl)-3-methyl-pyrrolo[1,2-a]pyrazine-6-carboxamide] stands less than 50 nM; under `Cc1ccc(O)c(C)c1-n1c(N)c(C(N)=O)c2cc3c(nc21)CCN3` [Compound 620], less than 50 nM; under `Cc1ccc(O)c(C)c1-n1c(N)c(C(N)=O)c2c(C)ncc(F)c21` [Compound 582, 2-amino-7-fluoro-1-(3-hydroxy-2,6-dimethyl-phenyl)-4-methyl-pyrrolo[3,2-c]pyridine-3-carboxamide], less than 50 nM.

`Cc1c(O)cc(F)c(C)c1-n1c(N)c(C(N)=O)c2cnc(C3CC3)c(F)c21` [Compound 623, 2-amino-6-cyclopropyl-7-fluoro-1-(3-fluoro-5-hydroxy-2,6-dimethyl-phenyl)pyrrolo[3,2-c]pyridine-3-carboxamide] came in with an IC50 of less than 50 nM. Under `Cc1ccc(O)c(C)c1-n1c(N)c(C(N)=O)c2cnc(N[C@H]3CCC[C@@H]3O)nc21` [Compound 579, 6-amino-7-(3-hydroxy-2,6-dimethylphenyl)-2-(((1S,2S)-2-hydroxycyclopentyl)amino)-7H-pyrrolo[2,3-d]pyrimidine-5-carboxamide] stands less than 50 nM; under `Cc1cnc2c(c1)c(C(N)=O)c(N)n2-c1c(C)ccc2ocnc12` [Compound 553, 2-amino-5-methyl-1-(5-methylbenzo[d]oxazol-4-yl)-1H-pyrrolo[2,3-b]pyridine-3-carboxamide], 100 to 1000 nM; under `Cc1ccc(O)c(C)c1-n1c(N)c(C(N)=O)c2cnc(NCCO)nc21` (atropisomer, axis not shown) [Compound 588, 6-amino-7-(3-hydroxy-2,6-dimethylphenyl)-2-((2-hydroxyethyl)amino)-7H-pyrrolo[2,3-d]pyrimidine-5-carboxamide], less than 50 nM. Under `Cc1ccc(O)c(C)c1-c1c(N)c(C(N)=O)c2nccc(C)n12` [Compound 548, 7-amino-6-(3-hydroxy-2,6-dimethyl-phenyl)-4-methyl-pyrrolo[1,2-a]pyrimidine-8-carboxamide] stands 100 to 1000 nM; under `Cc1ccc(O)c(C)c1-n1c(N)c(C(N)=O)c2cnc(N[C@@H]3CCC[C@H]3O)nc21` [Compound 580, 6-amino-7-(3-hydroxy-2,6-dimethylphenyl)-2-(((1R,2R)-2-hydroxycyclopentyl)amino)-7H-pyrrolo[2,3-d]pyrimidine-5-carboxamide], less than 50 nM; under `Cc1ccc(O)c(C)c1-n1c(N)c(C(N)=O)c2cnc(N3CC[C@H](O)C3)nc21` [Compound 581, 6-amino-7-(3-hydroxy-2,6-dimethyl-phenyl)-2-[(3S)-3-hydroxypyrrolidin-1-yl]pyrrolo[2,3-d]pyrimidine-5-carboxamide], less than 50 nM.

Compound `Cc1ccc(O)c(C)c1-n1c(N)c(C(N)=O)c2cnc(NC(=O)[C@H]3CCCN3)nc21` [Compound 584, 6-amino-7-(3-hydroxy-2,6-dimethylphenyl)-2-(pyrrolidine-2-carboxamido)-7H-pyrrolo[2,3-d]pyrimidine-5-carboxamide] had an IC50 of 100 to 1000 nM. Take `Cc1ccn2c(-c3c(C)ccc(O)c3C)c(N)c(C(N)=O)c2c1` [Compound 552, 2-amino-3-(3-hydroxy-2,6-dimethylphenyl)-7-methylindolizine-1-carboxamide]: the IC50 was in the range of 100 to 1000 nM. For `Cc1ccc(O)c(C)c1-n1c(N)c(C(N)=O)c2cnc(N[C@@H]3CCC[C@@H]3O)nc21` (atropisomer, axis not shown) [Compound 591] the value was 50 to 100 nM.

Compound `Cc1ccc(O)c(C)c1-n1c(N)c(C(N)=O)c2cnc(C#Cc3ccc(F)cc3)c(F)c21` [Compound 622, 2-amino-7-fluoro-6-((4-fluorophenyl)ethynyl)-1-(3-hydroxy-2,6-dimethylphenyl)-1H-pyrrolo[3,2-c]pyridine-3-carboxamide] yielded an IC50 of 50 to 100 nM. Compound `Cc1ccn2c(-c3c(C)ccc(O)c3C)c(N)c(C(N)=O)c2n1` [Compound 550, 7-amino-6-(3-hydroxy-2,6-dimethyl-phenyl)-2-methyl-pyrrolo[1,2-a]pyrimidine-8-carboxamide] returned an IC50 of 100 to 1000 nM. `Cc1ncc2c(C(N)=O)c(N)n(-c3c(C)c(O)cc(F)c3C)c2n1` [Compound 595, 6-amino-7-(3-fluoro-5-hydroxy-2,6-dimethyl-phenyl)-2-methyl-pyrrolo[2,3-d]pyrimidine-5-carboxamide]: the IC50 is less than 50 nM. Under `Cc1ncc2c(C(N)=O)c(N)n(-c3c(C)c(O)cc(Cl)c3C)c2n1` [Compound 619, 6-amino-7-(3-chloro-5-hydroxy-2,6-dimethylphenyl)-2-methyl-7H-pyrrolo[2,3-d]pyrimidine-5-carboxamide] stands less than 50 nM.

In turn, `Cc1ccc(O)c(C)c1-n1c(N)c(C(N)=O)c2cnc(S(C)(=O)=O)nc21` [Compound 625, 6-amino-7-(3-hydroxy-2,6-dimethylphenyl)-2-(methylsulfonyl)-7H-pyrrolo[2,3-d]pyrimidine-5-carboxamide] returned an IC50 of less than 50 nM. In turn, `Cc1ccc(O)c(C)c1-n1c(N)c(C(N)=O)c2cnc(C(F)(F)F)nc21` [Compound 608, 6-amino-7-(3-hydroxy-2,6-dimethylphenyl)-2-(trifluoromethyl)-7H-pyrrolo[2,3-d]pyrimidine-5-carboxamide] had an IC50 of less than 50 nM.

For `Cc1ccc(O)c(C)c1-n1c(N)c(C(N)=O)c2cncc(F)c21` (atropisomer, axis not shown) [Compound 624, 2-amino-7-fluoro-1-(3-hydroxy-2,6-dimethyl-phenyl)pyrrolo[3,2-c]pyridine-3-carboxamide], the IC50 is less than 50 nM. Under `Cc1ccc(O)c(C)c1-n1c(N)c(C(N)=O)c2cncnc21` (single isomer, unassigned) [Compound 571, 6-amino-7-(3-hydroxy-2,6-dimethylphenyl)-7H-pyrrolo[2,3-d]pyrimidine-5-carboxamide] stands 100 to 1000 nM; under `CCN(CC)c1ncc2c(C(N)=O)c(N)n(-c3c(C)ccc(O)c3C)c2n1` [Compound 609, 6-amino-2-(diethylamino)-7-(3-hydroxy-2,6-dimethylphenyl)-7H-pyrrolo[2,3-d]pyrimidine-5-carboxamide], less than 50 nM.
